Experimental data as given in US20070134355A1, “Use of plant parts of prickly pear (opuntia) and/or extracts therefrom for the treatment of depressions” (priority 2003, published 2007).
Several values for one entry are separate records, joined by “and”; a condition that tells them apart may be missing. Identical values can stand only once.

Test system: rats
Test: forced swimming test in rats
Assay type: in vivo, rat
Conditions: percentage of inhibition against the control group
Protocol: The antidepressive efficacy has been tested by means of the so-called “forced swimming test” in rats. In this test rats are brought into an impasse during a defined period of five minutes (glass cylinder filled with water). In this test the rats reacted with a rigour referred to as immobilization time, which is interpreted to correlate with a depression. If the rats are treated with an antidepressively effective medicament prior to the test, the immobilization time decreases. Since other psychopharamaca such as anxiolytics or neuroleptics are not efficacious in this test, this test system is well suitable to detect antidepressive effects (R. D. Porsolt et al., Eur. J. Pharmacol. 47, 379-391 (1978); R. D. Porsolt et al., Adv. Pharmacol. Sci., 137-159 (1991)). In order to be efficacious, each of the heretofore known antidepressive agents has to be administered over a period of several days in this test, like in the case of patients. The test animals were treated either with the test substance or with a solvent only for control purposes or with the tricyclic antidepressive agent Imipramine in order to compare the efficacy. Imipramine was selected as the standard comparative substance, because it is one of the strongest antidepressive agents both in psychiatric practice and in animal model.
Tables 1 to 3 exemplarily show the efficacy of three different Opuntia extracts compared to the tricyclic antidepressive agent Imipramine as determined after a treatment period of 9 days. […] In this case, the inhibition was determined already after a treatment period of 3 days. For comparison purposes, the inhibition of the immobility was represented as the percentage of inhibition against the control group in each of the tables.

| Compound | Inhibition of immobility (dose 100 mg/kg, treatment period of 3 days) | Inhibition of immobility (dose 20 mg/kg, treatment period of 9 days) | Inhibition of immobility (dose 30 mg/kg, treatment period of 9 days, 30 mg/kg) |
| --- | --- | --- | --- |
| COc1ccc(C(CN(C)C)C2(O)CCCCC2)cc1 (stereo not drawn) [Venlafaxine] | 25% |  |  |
| CN(C)CCCN1c2ccccc2CCc2ccccc21 [Imipramine] |  | 44% | 64% and 68% |
